14 compounds from patent US12139492B2 (Endotarget Inc., priority 2021, dated 2024) can be followed below.

Where two headings read alike, the source gives them in different places. Where only a bound is given, the exact number is not on record here.

One test has as its system JeKo-1 cells. The experiment in a line: Antiproliferative effect, MTS cell viability assay, JeKo-1 cells. To be noted: JeKo-1 mantle cell lymphoma cells, read-out: IC50 (anti-proliferation) JeKO-1 cells. Format: cell-based. The protocol: (§1) Antiproliferative effect of the exemplary compounds was assessed in B-cell malignancy models.
(§2) To assess the effect of the exemplary compounds on cell viability in B-cell malignancy models by degradation of BTK protein, Mino and JeKo-1 cells were treated with varying concentrations of Ibrutinib (0, 0.001, 0.01, 0.1, 1, 10 μM). Under these conditions, cell viability was determined by an MTS assay. Cytotoxicity was assayed by the determination of reduced tetrazolium (formazan) created by metabolically active cells as detected at 490 nm absorbance using a microplate reader (BMG Labtech, Cary, NC, USA).
(§3) The exemplary compounds attenuated the viability of Mino and JeKo-1 cells in a concentration-dependent manner at 72 h post treatment. Results are shown in Table 1 for each exemplary compound.

In another test the target is BTK (Homo sapiens, UniProt Q06187). The experiment in a line: Degradation of BTK protein in Namalwa cells (Western blot; DC50, Dmax).
The subject of the next test is Mino cells. Nature of the test: Antiproliferative effect, MTS cell viability assay, Mino cells. It counts as cell-based. To be noted: Mino mantle cell lymphoma cells, read-out: IC50 (anti-proliferation) Mino cells. The protocol: as §1, §2, §3
A general note: Tetrazolium assays rely on reduction of a dye to a coloured formazan, in cell work by metabolically active cells.

Where [1] appears, read: read-out: DC50 (BTK degradation), concentration giving 50% reduction of BTK expression level, cell line not given.
Where [2] appears, read: BTK degradation, cell line not given.

BTK, sequence (Q06187 whole entry): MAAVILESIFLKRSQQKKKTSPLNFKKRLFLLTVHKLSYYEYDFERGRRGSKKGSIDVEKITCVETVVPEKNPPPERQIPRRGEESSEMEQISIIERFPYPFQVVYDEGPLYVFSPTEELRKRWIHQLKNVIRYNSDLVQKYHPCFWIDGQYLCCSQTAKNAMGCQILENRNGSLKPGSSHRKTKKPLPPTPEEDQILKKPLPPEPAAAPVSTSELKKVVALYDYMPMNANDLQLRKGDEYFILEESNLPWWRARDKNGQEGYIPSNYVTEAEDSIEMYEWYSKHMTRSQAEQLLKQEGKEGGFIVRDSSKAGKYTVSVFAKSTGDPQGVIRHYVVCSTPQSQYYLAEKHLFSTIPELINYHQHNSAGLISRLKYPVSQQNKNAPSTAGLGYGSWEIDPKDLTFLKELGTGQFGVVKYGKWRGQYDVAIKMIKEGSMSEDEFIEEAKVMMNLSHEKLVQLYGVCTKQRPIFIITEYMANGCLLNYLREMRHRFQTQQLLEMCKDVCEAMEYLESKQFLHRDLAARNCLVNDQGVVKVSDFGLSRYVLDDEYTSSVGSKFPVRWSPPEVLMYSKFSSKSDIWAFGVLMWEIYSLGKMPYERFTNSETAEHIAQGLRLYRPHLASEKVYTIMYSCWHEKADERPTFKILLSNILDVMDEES

As usually defined, the DC50 is the midpoint of the concentration-degradation curve. A word on the Dmax: it is the greatest extent of degradation seen. `Nc1ncnc2c1c(-c1ccc(Oc3ccccc3)cc1)nn2C1CCN(CCN2CCC(N3CCN(c4ccc5c(c4)C(=O)N(C4CCC(=O)NC4=O)C5=O)CC3)C2)CC1` (single isomer, unassigned) [Compound 459a, 5-(4-(1-(2-(4-(4-amino-3-(4-phenoxyphenyl)-1H-pyrazolo[3,4-d]pyrimidin-1-yl)piperidin-1-yl)ethyl)pyrrolidin-3-yl)piperazin-1-yl)-2-(2,6-dioxopiperidin-3-yl)isoindoline-1,3-dione]: the IC50 in the test with JeKo-1 cells (Homo sapiens) was under 1000 nM; in the test with Mino cells (Homo sapiens, MINO) it was under 1000 nM. The DC50 on BTK (setting [1]) was in the range of 10 to 50 nM. Further, at BTK (read-out: Dmax (BTK degradation)), the Dmax is over 90%.

With `Nc1ncnc2c1c(-c1ccc(Oc3ccccc3)cc1)nn2C1CCN(CCN2CCC(N3CCN(c4ccc5c(c4)C(=O)N(C4CCC(=O)NC4=O)C5=O)CC3)C2)CC1` (single isomer, unassigned) [Compound 459b, 5-(4-(1-(2-(4-(4-amino-3-(4-phenoxyphenyl)-1H-pyrazolo[3,4-d]pyrimidin-1-yl)piperidin-1-yl)ethyl)pyrrolidin-3-yl)piperazin-1-yl)-2-(2,6-dioxopiperidin-3-yl)isoindoline-1,3-dione], the IC50 in the test on JeKo-1 cells and in the test on Mino cells was under 1000 nM throughout. On BTK (cell line not given), the “Dmax (BTK degradation)” value is given as “A (A >90%)”. Further, the DC50 on BTK (setting [1]) is under 10 nM.

In the case of `Nc1ncnc2c1c(-c1ccc(Oc3ccccc3)cc1)nn2C1CCN(C2CCN(CC3CCN(c4ccc5c(c4)C(=O)N(C4CCC(=O)NC4=O)C5=O)CC3)CC2)CC1` (stereo in doubt) [Compound 213b, (S)-5-(4-((4-(4-amino-3-(4-phenoxyphenyl)-1H-pyrazolo[3,4-d]pyrimidin-1-yl)-[1,4′-bipiperidin]-1′-yl)methyl)piperidin-1-yl)-2-(2,6-dioxopiperidin-3-yl)isoindoline-1,3-dione], the IC50 in the test on JeKo-1 cells and in the test with Mino cells was under 1000 nM each time. On BTK (setting [2]), this compound registered a DC50 of under 10 nM.

As for `Nc1ncnc2c1c(-c1ccc(Oc3ccccc3)cc1)nn2[C@@H]1CCCN(C2CCN(C(=O)N3CCC(CCCC4CCN(c5ccc6c(c5)C(=O)N(C5CCC(=O)NC5=O)C6=O)CC4)CC3)CC2)C1` (stereo partly drawn) [Compound 195, 5-(4-(3-(1-((R)-3-(4-amino-3-(4-phenoxyphenyl)-1H-pyrazolo[3,4-d]pyrimidin-1-yl)-[1,4′-bipiperidine]-1′-carbonyl)piperidin-4-yl)propyl)piperidin-1-yl)-2-(2,6-dioxopiperidin-3-yl)isoindoline-1,3-dione], the IC50 in the test on JeKo-1 cells (Homo sapiens) was 1000 to 10000 nM; in the test with Mino cells (Homo sapiens, MINO), over 10000 nM. This compound gave a Dmax on BTK of over 75%. On BTK (setting [2]), this compound registered a DC50 of over 50 nM.

Turning to `Nc1ncnc2c1c(-c1ccc(Oc3ccccc3)cc1)nn2[C@@H]1CCCN(C2CCN(C(=O)N3CCC(CCCC4CCN(c5ccc6c(c5)CN(C5CCC(=O)NC5=O)C6=O)CC4)CC3)CC2)C1` (stereo partly drawn) [Compound 196, 3-(5-(4-(3-(1-((R)-3-(4-amino-3-(4-phenoxyphenyl)-1H-pyrazolo[3,4-d]pyrimidin-1-yl)-[1,4′-bipiperidine]-1′-carbonyl)piperidin-4-yl)propyl)piperidin-1-yl)-1-oxoisoindolin-2-yl)piperidine-2,6-dione], the IC50 with JeKo-1 cells (Homo sapiens) was 1000 to 10000 nM; in the test on Mino cells (Homo sapiens, MINO) it was 1000 to 10000 nM. For the same compound, at BTK, the Dmax is over 75%. The same compound registered a 50% degradation concentration (DC50) on BTK (setting [2]) of 10 to 50 nM.

Take `Nc1ncnc2c1c(-c1ccc(Oc3ccccc3)cc1)nn2[C@@H]1CCCN(C2CCN(C(=O)N3CCC(CCCN4CCC(c5ccc6c(c5)C(=O)N(C5CCC(=O)NC5=O)C6=O)CC4)CC3)CC2)C1` (stereo partly drawn) [Compound 197, 5-(1-(3-(1-((R)-3-(4-amino-3-(4-phenoxyphenyl)-1H-pyrazolo[3,4-d]pyrimidin-1-yl)-[1,4′-bipiperidine]-1′-carbonyl)piperidin-4-yl)propyl)piperidin-4-yl)-2-(2,6-dioxopiperidin-3-yl)isoindoline-1,3-dione]: the IC50 in the test with JeKo-1 cells (Homo sapiens) is over 10000 nM; with Mino cells (Homo sapiens, MINO), 1000 to 10000 nM. On BTK, this compound showed a Dmax of over 75%. On BTK (setting [2]), this compound showed a DC50 of 10 to 50 nM.

Turning to `Nc1ncnc2c1c(-c1ccc(Oc3ccccc3)cc1)nn2[C@@H]1CCCN(C2CCN(C(=O)N3CCC(CCCN4CCC(c5ccc6c(c5)CN(C5CCC(=O)NC5=O)C6=O)CC4)CC3)CC2)C1` (stereo partly drawn) [Compound 198, 3-(5-(1-(3-(1-((R)-3-(4-amino-3-(4-phenoxyphenyl)-1H-pyrazolo[3,4-d]pyrimidin-1-yl)-[1,4′-bipiperidine]-1′-carbonyl)piperidin-4-yl)propyl)piperidin-4-yl)-1-oxoisoindolin-2-yl)piperidine-2,6-dione], the IC50 in the test with JeKo-1 cells (Homo sapiens) lay in the range of 1000 to 10000 nM; in the test on Mino cells (Homo sapiens, MINO) it was 1000 to 10000 nM. The same compound displayed a Dmax at BTK of over 75%. For the same compound, on BTK (setting [2]), the DC50 fell in the range of 10 to 50 nM.

`Nc1ncnc2c1c(-c1ccc(Oc3ccccc3)cc1)nn2C1CCN(CC2CCN(CC3CCN(c4ccc5c(c4)C(=O)N(C4CCC(=O)NC4=O)C5=O)CC3)CC2)CC1` (centres unmarked) [Compound 199, 5-(4-((4-((4-(4-amino-3-(4-phenoxyphenyl)-1H-pyrazolo(3,4-d)pyrimidin-1-yl)piperidin-1-yl)methyl)piperidin-1-yl)methyl)piperidin-1-yl)-2-(2,6-dioxopiperidin-3-yl)isoindoline-1,3-dione]: the IC50 was 1000 to 10000 nM in the test on JeKo-1 cells (Homo sapiens) and under 1000 nM with Mino cells (Homo sapiens, MINO). For the same compound, at BTK, the Dmax is over 90%. On BTK (setting [2]), this compound yielded a half-maximal degradation concentration (DC50) of 10 to 50 nM.

`Nc1ncnc2c1c(-c1ccc(Oc3ccccc3)cc1)nn2C1CCN(CC2CCN(CC3CCN(c4ccc5c(c4)CN(C4CCC(=O)NC4=O)C5=O)CC3)CC2)CC1` (centres unmarked) [Compound 200, 3-(5-(4-((4-((4-(4-amino-3-(4-phenoxyphenyl)-1H-pyrazolo(3,4-d)pyrimidin-1-yl)piperidin-1-yl)methyl)piperidin-1-yl)methyl)piperidin-1-yl)-1-oxoisoindolin-2-yl)piperidine-2,6-dione]: the IC50 with JeKo-1 cells (Homo sapiens) and with Mino cells (Homo sapiens) was 1000 to 10000 nM each time. On BTK, this compound came in with a maximal degradation (Dmax) of under 50%. Moreover, the DC50 on BTK (setting [2]) is over 50 nM. Further, the “degradation of BTK protein” value on BTK (Namalwa B lymphocyte cells, various concentrations, 24 hours, Western blot) was “dose-dependent degradation”.

`Nc1ncnc2c1c(-c1ccc(Oc3ccccc3)cc1)nn2C1CCN(CC2CCN(CCC3CCN(c4ccc5c(c4)C(=O)N(C4CCC(=O)NC4=O)C5=O)CC3)CC2)CC1` (centres unmarked) [Compound 201, 5-(4-(2-(4-((4-(4-amino-3-(4-phenoxyphenyl)-1H-pyrazolo[3,4-d]pyrimidin-1-yl)piperidin-1-yl)methyl)piperidin-1-yl)ethyl)piperidin-1-yl)-2-(2,6-dioxopiperidin-3-yl)isoindoline-1,3-dione]: the IC50 with JeKo-1 cells (Homo sapiens) was 1000 to 10000 nM; in the test on Mino cells (Homo sapiens, MINO), 1000 to 10000 nM. Moreover, on BTK, the Dmax is over 90%. Also, the 50% degradation concentration (DC50) at BTK (setting [2]) lay in the range of 10 to 50 nM.

As for `Nc1ncnc2c1c(-c1ccc(Oc3ccccc3)cc1)nn2C1CCN(CC2CCN(CCC3CCN(c4ccc5c(c4)CN(C4CCC(=O)NC4=O)C5=O)CC3)CC2)CC1` (centres unmarked) [Compound 202, 3-(5-(4-(2-(4-((4-(4-amino-3-(4-phenoxyphenyl)-1H-pyrazolo[3,4-d]pyrimidin-1-yl)piperidin-1-yl)methyl)piperidin-1-yl)ethyl)piperidin-1-yl)-1-oxoisoindolin-2-yl)piperidine-2,6-dione], the IC50 in the test on JeKo-1 cells (Homo sapiens) was under 1000 nM; in the test with Mino cells (Homo sapiens, MINO) it was 1000 to 10000 nM. The greatest degradation seen (Dmax) on BTK was over 90%. At BTK (setting [2]), the DC50 was 10 to 50 nM.

For the compound `Nc1ncnc2c1c(-c1ccc(Oc3ccccc3)cc1)nn2C1CCN(CC2CCN(CCN3CCN(c4ccc5c(c4)C(=O)N(C4CCC(=O)NC4=O)C5=O)CC3)CC2)CC1` (centres unmarked) [Compound 203, 5-(4-(2-(4-((4-(4-amino-3-(4-phenoxyphenyl)-1H-pyrazolo[3,4-d]pyrimidin-1-yl)piperidin-1-yl)methyl)piperidin-1-yl)ethyl)piperazin-1-yl)-2-(2,6-dioxopiperidin-3-yl)isoindoline-1,3-dione], the IC50 in the test on JeKo-1 cells (Homo sapiens) is 1000 to 10000 nM; in the test on Mino cells (Homo sapiens, MINO) it was 1000 to 10000 nM. On BTK, this compound yielded a maximal degradation (Dmax) of over 90%. The 50% degradation concentration (DC50) on BTK (setting [2]) lay within 10 to 50 nM.

Regarding `Nc1ncnc2c1c(-c1ccc(Oc3ccccc3)cc1)nn2C1CCN(CC2CCN(CCN3CCN(c4ccc5c(c4)CN(C4CCC(=O)NC4=O)C5=O)CC3)CC2)CC1` (centres unmarked) [Compound 204, 3-(5-(4-(2-(4-((4-(4-amino-3-(4-phenoxyphenyl)-1H-pyrazolo[3,4-d]pyrimidin-1-yl)piperidin-1-yl)methyl)piperidin-1-yl)ethyl)piperazin-1-yl)-1-oxoisoindolin-2-yl)piperidine-2,6-dione], the IC50 in the test with JeKo-1 cells (Homo sapiens) is 1000 to 10000 nM; with Mino cells (Homo sapiens, MINO) it was under 1000 nM. At BTK, this compound displayed a Dmax of over 90%. For the same compound, the half-maximal degradation concentration (DC50) on BTK (setting [2]) was in the range of 10 to 50 nM.

In the case of `Nc1ncnc2c1c(-c1ccc(Oc3ccccc3)cc1)nn2C1CCN(CC2CCN(CCN3CCC(c4ccc5c(c4)C(=O)N(C4CCC(=O)NC4=O)C5=O)CC3)CC2)CC1` (centres unmarked) [Compound 205, 5-(1-(2-(4-((4-(4-amino-3-(4-phenoxyphenyl)-1H-pyrazolo[3,4-d]pyrimidin-1-yl)piperidin-1-yl)methyl)piperidin-1-yl)ethyl)piperidin-4-yl)-2-(2,6-dioxopiperidin-3-yl)isoindoline-1,3-dione], the IC50 with JeKo-1 cells (Homo sapiens) was 1000 to 10000 nM; in the test with Mino cells (Homo sapiens, MINO) it was under 1000 nM. At BTK, this compound gave a Dmax of over 90%. In addition, the DC50 at BTK (setting [2]) was in the range of 10 to 50 nM.
